Measurements reported in PMC8708751, “Hit Identification of a Novel Quinazoline Sulfonamide as a Promising EphB3 Inhibitor: Design, Virtual Combinatorial Library, Synthesis, Biological Evaluation, and Docking Simulation Studies” (Pharmaceuticals, 2021).
Read-outs that look alike come from different tables or passages of the source.

How the values were obtained:
KDR/VEGFR2 = biological target: T1, KDR/VEGFR2 (Homo sapiens, UniProt P35968); test: Kinase panel assay, KDR/VEGFR2; assay type: biochemical; conditions: KDR/VEGFR2, 10 µM; read-out: Average % Enzyme Inhibition (Relative to DMSO Controls) at 10 µM
T1 construct: purchased Reaction Biology Co. (Kinase HotSpot service)
T1 sequence (P35968 20-1356): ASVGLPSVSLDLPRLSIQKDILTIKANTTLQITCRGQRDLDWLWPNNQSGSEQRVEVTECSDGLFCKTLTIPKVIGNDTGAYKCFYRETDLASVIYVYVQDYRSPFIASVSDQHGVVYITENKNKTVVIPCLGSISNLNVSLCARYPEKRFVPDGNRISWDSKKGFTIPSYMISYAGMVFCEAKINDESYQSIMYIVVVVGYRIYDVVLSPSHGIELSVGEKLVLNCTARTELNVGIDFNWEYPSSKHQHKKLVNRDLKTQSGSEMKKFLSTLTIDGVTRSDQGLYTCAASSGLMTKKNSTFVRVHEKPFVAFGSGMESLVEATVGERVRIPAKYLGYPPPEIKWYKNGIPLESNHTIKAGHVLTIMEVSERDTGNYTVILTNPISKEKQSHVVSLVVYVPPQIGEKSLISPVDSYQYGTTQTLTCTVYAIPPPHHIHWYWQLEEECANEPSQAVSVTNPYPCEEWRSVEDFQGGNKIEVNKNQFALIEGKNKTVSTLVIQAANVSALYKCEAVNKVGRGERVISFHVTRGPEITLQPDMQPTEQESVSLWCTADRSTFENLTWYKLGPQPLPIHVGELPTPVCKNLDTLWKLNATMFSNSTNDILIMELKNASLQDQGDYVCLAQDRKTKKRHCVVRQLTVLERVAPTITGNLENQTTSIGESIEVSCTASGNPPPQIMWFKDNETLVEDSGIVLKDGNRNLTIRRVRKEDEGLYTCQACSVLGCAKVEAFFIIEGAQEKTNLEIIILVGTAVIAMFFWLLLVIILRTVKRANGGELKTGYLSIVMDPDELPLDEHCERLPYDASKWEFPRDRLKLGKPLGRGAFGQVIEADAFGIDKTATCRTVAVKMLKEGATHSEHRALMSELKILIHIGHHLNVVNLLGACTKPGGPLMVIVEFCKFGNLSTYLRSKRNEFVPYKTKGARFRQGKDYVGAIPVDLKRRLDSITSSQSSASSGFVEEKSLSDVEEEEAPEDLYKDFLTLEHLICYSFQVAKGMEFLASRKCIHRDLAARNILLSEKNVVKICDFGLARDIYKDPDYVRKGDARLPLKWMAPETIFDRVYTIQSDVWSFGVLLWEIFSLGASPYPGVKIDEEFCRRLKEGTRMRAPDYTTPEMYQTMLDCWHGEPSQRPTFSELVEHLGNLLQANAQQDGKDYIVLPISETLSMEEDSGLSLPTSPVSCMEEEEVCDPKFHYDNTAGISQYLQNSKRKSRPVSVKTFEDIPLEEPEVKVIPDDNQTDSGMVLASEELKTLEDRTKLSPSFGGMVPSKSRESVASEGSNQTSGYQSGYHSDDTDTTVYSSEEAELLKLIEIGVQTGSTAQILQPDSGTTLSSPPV
Protocol: (§1) The screening of the tested compounds was performed using the Kinase HotSpot^SM service from Reaction Biology Co. (http://www.reactionbiology.com, accessed on 25 September 2021). The HotSpot assay platform contains specific kinase/substrate pairs along with required cofactors. Base reaction buffer: 20 mM Hepes (pH 7.5), 10 mM MgCl2, 1 mM EGTA, 0.02% Brij35, 0.02 mg/mL BSA, 0.1 mM Na3VO4, 2 mM DTT, 1% DMSO. The tested compounds were dissolved in 100% DMSO to specific concentration. The serial dilution was conducted by Integra Viaflo Assist in DMSO (Sigma-Aldrich, Burlington, MA, USA). The reaction mixture containing the examined compound and 33P-ATP was incubated at room temperature for 2 h, and radioactivity was detected by filter-binding method. Kinase activity data were expressed as the percent remaining kinase activity in test samples compared to vehicle (dimethyl sulfoxide) reactions. IC50 values and curve fits were obtained using Prism (GraphPad Software, San Diego, CA, USA).

EphB3 kinase = biological target: T2, EphB3 kinase (Homo sapiens, UniProt P54753); test: EphB3 kinase inhibition assay (HotSpot); assay type: biochemical
T2 construct: purchased Reaction Biology Co. (Kinase HotSpot service)
T2 sequence (P54753 34-998): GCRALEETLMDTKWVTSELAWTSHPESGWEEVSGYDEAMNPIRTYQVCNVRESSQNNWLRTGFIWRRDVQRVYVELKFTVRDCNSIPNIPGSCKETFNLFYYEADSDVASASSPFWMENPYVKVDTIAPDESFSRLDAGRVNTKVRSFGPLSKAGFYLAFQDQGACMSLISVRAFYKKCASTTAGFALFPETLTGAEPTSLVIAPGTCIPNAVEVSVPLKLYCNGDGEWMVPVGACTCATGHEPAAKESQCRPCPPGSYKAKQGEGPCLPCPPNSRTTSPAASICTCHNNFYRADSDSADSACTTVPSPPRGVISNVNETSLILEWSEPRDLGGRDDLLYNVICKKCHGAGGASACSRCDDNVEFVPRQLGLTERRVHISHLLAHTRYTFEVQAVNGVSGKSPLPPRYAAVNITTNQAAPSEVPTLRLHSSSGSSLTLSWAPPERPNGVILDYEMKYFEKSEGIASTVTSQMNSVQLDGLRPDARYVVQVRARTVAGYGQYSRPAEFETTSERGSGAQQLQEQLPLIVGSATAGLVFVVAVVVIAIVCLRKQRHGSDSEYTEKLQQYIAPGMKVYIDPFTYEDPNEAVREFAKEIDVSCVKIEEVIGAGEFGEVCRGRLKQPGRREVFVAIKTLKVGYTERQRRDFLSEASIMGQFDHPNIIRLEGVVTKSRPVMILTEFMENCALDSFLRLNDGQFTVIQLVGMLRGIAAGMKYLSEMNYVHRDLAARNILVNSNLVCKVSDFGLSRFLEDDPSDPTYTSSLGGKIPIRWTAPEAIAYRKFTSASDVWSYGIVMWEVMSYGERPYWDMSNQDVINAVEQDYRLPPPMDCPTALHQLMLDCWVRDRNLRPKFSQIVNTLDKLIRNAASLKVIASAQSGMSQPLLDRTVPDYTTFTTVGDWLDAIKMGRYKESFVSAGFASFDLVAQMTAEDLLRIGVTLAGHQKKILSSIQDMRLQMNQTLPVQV
Protocol: The synthesized compounds were subjected to in vitro screening over EphB3 kinase. A single dose of 10 µM concentration of each target compound was used in EphB3 kinase inhibition assay, at 10 µM ATP, applying HotSpot^SM technology.
as §1, with “The” for “The screening of the tested compounds was performed using the Kinase HotSpot^SM service from Reaction Biology Co. (http://www.reactionbiology.com, accessed on 25 September 2021). The”

EGFR kinase = biological target: T3, EGFR kinase (Homo sapiens, UniProt P00533); test: EGFR kinase inhibition assay (HotSpot); assay type: biochemical
T3 construct: purchased Reaction Biology Co. (Kinase HotSpot service)
T3 sequence (P00533 25-1210): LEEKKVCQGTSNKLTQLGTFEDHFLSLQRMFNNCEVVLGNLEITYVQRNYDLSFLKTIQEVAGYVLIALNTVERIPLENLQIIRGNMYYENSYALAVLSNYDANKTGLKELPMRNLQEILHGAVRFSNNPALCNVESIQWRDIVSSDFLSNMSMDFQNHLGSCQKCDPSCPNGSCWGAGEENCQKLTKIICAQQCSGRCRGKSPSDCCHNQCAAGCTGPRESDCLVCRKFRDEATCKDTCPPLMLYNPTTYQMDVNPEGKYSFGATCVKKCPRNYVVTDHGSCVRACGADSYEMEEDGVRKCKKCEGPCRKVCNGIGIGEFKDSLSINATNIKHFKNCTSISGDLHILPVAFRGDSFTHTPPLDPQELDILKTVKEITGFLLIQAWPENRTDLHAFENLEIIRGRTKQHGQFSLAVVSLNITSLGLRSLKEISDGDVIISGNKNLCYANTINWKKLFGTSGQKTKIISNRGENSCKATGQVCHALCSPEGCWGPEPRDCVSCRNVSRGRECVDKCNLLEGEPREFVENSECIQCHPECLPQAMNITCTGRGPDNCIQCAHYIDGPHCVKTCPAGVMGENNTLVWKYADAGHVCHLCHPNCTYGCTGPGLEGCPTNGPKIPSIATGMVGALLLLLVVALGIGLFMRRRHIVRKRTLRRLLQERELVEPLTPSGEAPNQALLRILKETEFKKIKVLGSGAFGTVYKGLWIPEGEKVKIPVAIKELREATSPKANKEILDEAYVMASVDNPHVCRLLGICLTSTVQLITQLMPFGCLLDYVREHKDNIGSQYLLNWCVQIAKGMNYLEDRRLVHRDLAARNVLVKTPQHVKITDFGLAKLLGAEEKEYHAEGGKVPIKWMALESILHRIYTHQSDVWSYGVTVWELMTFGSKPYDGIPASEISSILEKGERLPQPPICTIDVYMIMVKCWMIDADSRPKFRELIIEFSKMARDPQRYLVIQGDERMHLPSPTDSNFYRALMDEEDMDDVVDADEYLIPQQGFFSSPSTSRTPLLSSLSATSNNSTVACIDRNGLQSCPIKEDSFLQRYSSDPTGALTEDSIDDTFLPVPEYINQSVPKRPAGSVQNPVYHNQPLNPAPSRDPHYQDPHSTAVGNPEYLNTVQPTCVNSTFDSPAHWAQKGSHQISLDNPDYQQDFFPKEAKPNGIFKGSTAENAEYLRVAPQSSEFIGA

Aurora A = biological target: T4, Aurora A (Homo sapiens, UniProt O14965); test: Kinase panel assay, Aurora A; assay type: biochemical; conditions: read-out: Average % Enzyme Inhibition (Relative to DMSO Controls) at 10 µM
T4 construct: purchased Reaction Biology Co. (Kinase HotSpot service)
T4 sequence (O14965 1-403): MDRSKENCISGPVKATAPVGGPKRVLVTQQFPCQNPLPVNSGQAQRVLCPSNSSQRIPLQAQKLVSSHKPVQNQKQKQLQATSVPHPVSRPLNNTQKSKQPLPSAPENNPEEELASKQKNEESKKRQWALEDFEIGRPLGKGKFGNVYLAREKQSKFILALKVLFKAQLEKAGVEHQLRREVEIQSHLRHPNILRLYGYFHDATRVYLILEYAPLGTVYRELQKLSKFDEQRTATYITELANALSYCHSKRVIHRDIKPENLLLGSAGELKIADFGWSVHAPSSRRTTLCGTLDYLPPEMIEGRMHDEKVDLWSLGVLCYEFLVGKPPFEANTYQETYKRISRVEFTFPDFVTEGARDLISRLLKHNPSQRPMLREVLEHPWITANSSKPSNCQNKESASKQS
Protocol: as §1

inhibition at 10 µM (KDR/VEGFR2): 47.8%
inhibition at 10 µM (EphB3 kinase; EphB3 kinase, 10 µM compound, 10 µM ATP, read-out: Average % Enzyme Inhibition at 10 µM (Relative to DMSO Control)): > 93%
IC50 (EphB3 kinase; EphB3 kinase, dose dependent assay, read-out: IC50): 1.04 µM
IC50 (EphB3 kinase; EphB3 kinase, read-out: EC50 of the curve fit printed in Figure 5 (IC50 per legend)): 1.04 µM
selectivity for EphB3 over EphB1 isoform (EphB3 kinase; from IC50 values, EphB3 over EphB1): six
melting point: 313.2 to 315.1 °C
inhibition at 10 µM (EGFR kinase; EGFR kinase, 10 µM compound, 10 µM ATP as printed, read-out: Average % Enzyme Inhibition (Relative to DMSO Controls) at 10 µM): 46.8 ± 0.54%
IC50 (EGFR kinase; EGFR kinase, dose dependent assay, read-out: IC50): 8.04 µM
IC50 (EGFR kinase; EGFR, read-out: EC50 of the curve fit printed in Figure 6 (IC50 per legend)): 8.04 µM
inhibition at 10 µM (Aurora A): 67.9 ± 4.93%
Compound: NS(=O)(=O)c1ccc(Nc2ncnc3ccc(-c4cccc(O)c4)cc23)cc1 [Compound 4c, 4-((6-(3-Hydroxyphenyl)quinazolin-4-yl)amino)benzenesulfonamide]
